We go through 16 compounds from patent publication US7884097B2, “Methods and compositions comprising diamines as new anti-tubercular therapeutics” (Sequella, Inc., priority 2003, dated 2011).

≈ marks a conversion by molar mass, not a printed value. Entries after “also recorded” stand apart in the source; their conditions may differ. Like-named read-outs stand apart in the source and are kept apart here.

One experiment deals with H37Rv strain of Mtb. Kind of experiment: microbe, parasite or virus in culture. The class given is cell-based, M. tuberculosis.
In a further experiment the test system is Vero monkey kidney cells. Description: In vitro toxicity, MTS assay in Vero cells. Format: cell-based. Conditions: for SI (selectivity index, ratio of IC50:MIC): IC50 Vero cells : MIC. The protocol:
Cytotoxicity The Vero cell line (ATCC CCL-8 1) was seeded overnight at 5×10^4 cells per well in 96-well plates at 37° C. and 5% CO2 in EMEM with essential amino acids and glutamine (BioFluids) supplemented with 10% heat-inactivated fetal bovine serum (FBS). Cells were exposed to dilutions of experimental and control drugs in triplicate for 72 hr, with each compound at a range of concentrations from 15-200 μM. Chlorpromazine (Sigma) was run as a control at the same concentrations. CellTiter 96 AQueous Assay (Promega) was used for determination of Vero cell viability. Briefly, a solution of MTS salt (3-(4,5-dimethylthiazol-2-yl)-5-(3-carboxymethoxyphenyl)-2-(4-sulfophenyl)-2H-tetrazolium) and phenazine methosulfate was added to each well and plates were incubated for 2 hr at 37° C. and 5% CO2. Absorbance of each well was read using BioRad microplate reader at 490 nm. Viability (absorbance) of cells in drug-exposed wells was compared to those in drug-free control wells, and a curve relating cell viability to drug concentration was created.
A general note: Tetrazolium dyes change colour on reduction, which living cells bring about.

A further experiment relates to M. tuberculosis. The conditions noted are these: background statement; cited from earlier work.
The subject of experiment [1] is M. tuberculosis H37Rv. Description: Rapid (3 wk) murine model of TB, body weight loss. The class given is in vivo, mice. Conditions: for prevention of body weight loss and mortality: mice iv 10^6 CFU, test drugs 10 mg/kg daily by gavage for 10 days, INH 25 or 2.5 mg/kg; for loss of initial body weight: by day 21 following challenge, 10 mg/kg.
The next experiment has as its system HepG2 cell line. Description: In vitro cytotoxicity, MTS assay in HepG2 cell line. Format: cell-based. The conditions noted are these: Homo sapiens, HepG2 cells.
For experiment [2], the system named is M. tuberculosis in TB-infected mouse macrophage RAW 264.7 cells. Kind of experiment: Efficacy in TB-infected macrophages, bioluminescence reporter assay. The class given is cell-based. The conditions noted are these: for efficacy in macrophages compared to standard drugs (words): RAW 264.7, treated 6 days, 4 timepoints, five concentrations; for intracellular activity compared to EMB and INH: RAW 264.7, 7 days, day 7 readout. On the technique in general: A reporter such as luciferase makes a cellular process visible.

Experiment [3] concerns M. tuberculosis H37Rv. Description: Murine model of chronic TB, CFU in lung and spleen. Conditions: for activity against M. tuberculosis in vivo: mice, two models (rapid and chronic). The class given is in vivo, mice.
The subject of experiment [4] is recombinant mycobacteria containing a promoter fusion of luciferase to Rv0341. The class given is cell-based, M. tuberculosis. Conditions: active = exceeds untreated control by 1.5 times.
Setting [5] is: list of preferred compounds (FIG. 20).
Setting [6] is: cytotoxicity, list of preferred compounds (FIG. 20), read-out: IC50.
[7] abbreviates: Mycobacterium tuberculosis, H37RV, list of preferred compounds (FIG. 20), read-out: MIC.
Setting [8] is: Primates, Vero, cytotoxicity, list of preferred compounds (FIG. 20), read-out: IC50.
[9] abbreviates: Mycobacterium tuberculosis, H37RV, Examples 4 and 5 and screening summary, read-out: MIC.
[10] abbreviates: Mycobacterium tuberculosis, H37RV, read-out: MIC.

As to `CC(C)=CCC/C(C)=C/CNCCCN1CCCCC1C` (stereo not drawn) [#711, 1-(N-Geranyl)-3-Aminopropylpipecoline], in the experiment on H37Rv strain of Mtb (setting [5]), the MIC came to 6.25 µM (≈ 1.83 µg/mL).

`CC1CCCCN1CCCNCc1ccc(C(F)(F)F)cc1` (stereo not drawn) [#712, 1-(N-(4-Trifluorobenzyl)-3-Aminopropyl)pipecoline] yielded an MIC with H37Rv strain of Mtb (setting [5]) of 12.5 µM (≈ 3.93 µg/mL).

By IC50 is commonly meant the midpoint of a concentration-inhibition curve. In the case of `Fc1ccccc1N1CCN(C2CCC3CCCCC3C2)CC1` (stereo not drawn) [#765, N-(2-Fluorophenyl)-N′-(2-decalone)piperazine], the MIC in the experiment with H37Rv strain of Mtb was 6.25 µM (≈ 1.98 µg/mL). Further, in the experiment on Vero monkey kidney cells (setting [6]), the IC50 turned out to be 70 µM.

`CCOc1ccccc1CN1CCN(c2ccccc2F)CC1` [#766, N-(2-Fluorophenyl)-N′-(2-ethoxybenzyl)piperazine]: the MIC with H37Rv strain of Mtb (setting [7]) came out at 12.5 µM (≈ 3.93 µg/mL). In addition, the “SI (selectivity index, ratio of IC50:MIC)” value in the experiment with Vero monkey kidney cells is given as 6.08. Also, the IC50 in the experiment with Vero monkey kidney cells (Primates, Vero) was determined as 76 µM.

For the compound `c1ccc(CN2CCN(C3C4CC5CC(C4)CC3C5)CC2)cc1` (stereo not drawn) [#785, N-Benzyl-N′-2-Adamantylpiperazine], the MIC in the experiment on H37Rv strain of Mtb (setting [7]) stood at 12.5 µM (≈ 3.88 µg/mL). The “SI (selectivity index, ratio of IC50:MIC)” value in the experiment with Vero monkey kidney cells was 7.76. Also, in the experiment on Vero monkey kidney cells (setting [8]), the IC50 was 97 µM.

For the compound `c1ccc(CN2CCN(C3CCC4CCCCC4C3)CC2)cc1` (stereo not drawn) [#787, N-Benzyl-N′-2-Decalonepiperazine], the MIC against H37Rv strain of Mtb (setting [5]) is 12.5 µM (≈ 3.91 µg/mL). Besides, in the experiment on Vero monkey kidney cells (setting [6]), the IC50 turned out to be 70 µM.

As to `CC[C@@H](CO)NCCN[C@@H](CC)CO` [EMB, Ethambutol, reference compound], in the experiment on H37Rv strain of Mtb (setting [9]), the MIC amounted to 12.5 µM (≈ 2.55 µg/mL). Besides, in the experiment on M. tuberculosis, the “Minimum Inhibition Concentration (MIC)” value was “about 5 μg/ml”.

With `NNC(=O)c1ccncc1` [INH, Isoniazid, reference compound], the MIC in the experiment on H37Rv strain of Mtb (setting [9]) came to 1 µM (≈ 0.137 µg/mL). In addition, the “prevention of body weight loss and mortality” value in the experiment on M. tuberculosis H37Rv [1] is on record as “did not show any signs of body loss”.

Consider `C1CN(C2C3CC4CC(C3)CC2C4)CCN(C2C3CC4CC(C3)CC2C4)C1` (stereo not drawn) [SQ775, N,N′-Bis(2-Adamantane)homopiperazine], for which the MIC came to 6.25 µM (≈ 2.3 µg/mL) in the experiment on H37Rv strain of Mtb (setting [9]), 7.8 µM (≈ 2.88 µg/mL) in the experiment with H37Rv strain of Mtb (setting [7]) and 7.8 µM (≈ 2.88 µg/mL) in the experiment with H37Rv strain of Mtb (setting [10]). The “SI (selectivity index, ratio of IC50:MIC)” value in the experiment on Vero monkey kidney cells amounted to 16.92. Also, the IC50 in the experiment with Vero monkey kidney cells (setting [8]) and in the experiment with HepG2 cell line was 132 µM in each case. Moreover, the “efficacy in macrophages compared to standard drugs (words)” value in experiment [2] (listed as 775) is on record as “as effective as isoniazid”; in experiment [2] (listed as #775), “equal or superior to ethambutol”. For the same compound, the “inhibition of bacterial growth” value in experiment [2] (intracellular, RAW 264.7, day 7, concentration 2×MIC) was 99%. The “loss of initial body weight” value in the experiment with M. tuberculosis H37Rv [1] is given as 4%. Further, the “prevention of body weight loss and mortality” value in the experiment with M. tuberculosis H37Rv [1] was “prevented body weight loss and delayed mortality”. The “mortality in the group” value in the experiment with M. tuberculosis H37Rv [1] (one week after chemotherapy withdrawn, 6 mice) was determined as 50%. In the experiment on M. tuberculosis H37Rv [1] (ten days later, after chemotherapy withdrawal, 3 mice), the “loss of initial body weight of mice that remained alive” value is on record as “about 20%”. The “activity against M. tuberculosis in vivo” value in the experiment with M. tuberculosis H37Rv [3] was “promising activity against M.tb in vivo; also recorded: efficacious”.

Regarding `C1CCCC(N2CCCN(C3CCCCCCC3)CC2)CCC1` [SQ777], the MIC with H37Rv strain of Mtb (setting [10]) worked out at 7.8 µM (≈ 2.5 µg/mL). The IC50 in the experiment on HepG2 cell line is 74 µM.

Turning to `C1CCC2CC(N3CCCN(C4CCC5CCCCC5C4)CC3)CCC2C1` (stereo not drawn) [SQ778, N,N′-Bis(2-Decalone)homopiperazine], the MIC with H37Rv strain of Mtb (setting [7]) and with H37Rv strain of Mtb (setting [10]) was 7.8 µM (≈ 2.91 µg/mL) throughout. The “SI (selectivity index, ratio of IC50:MIC)” value in the experiment with Vero monkey kidney cells is 6.92. The IC50 with Vero monkey kidney cells (setting [8]) and with HepG2 cell line was 54 µM throughout.

Take `CC1(C)C2CC=C(CN3CCCN(CC4=CCC5CC4C5(C)C)CC3)C1C2` [SQ779]: the MIC in the experiment on H37Rv strain of Mtb (setting [7]) and in the experiment on H37Rv strain of Mtb (setting [10]) was 7.8 µM (≈ 2.88 µg/mL) in each case. Moreover, the “SI (selectivity index, ratio of IC50:MIC)” value in the experiment with Vero monkey kidney cells is reported as 14.1. In addition, the IC50 in the experiment on Vero monkey kidney cells (setting [8]) and in the experiment on HepG2 cell line was 110 µM in each case.

On to `CCOc1ccccc1CN1CCCN(Cc2ccccc2OCC)CC1` [SQ780, N,N′-Bis(2-Ethoxybenzyl)homopiperazine], for which the MIC amounted to 1.56 µM (≈ 0.575 µg/mL) in the experiment on H37Rv strain of Mtb (setting [9]), 1.56 µM (≈ 0.575 µg/mL) in the experiment on H37Rv strain of Mtb (setting [7]) and 3.9 µM (≈ 1.44 µg/mL) with H37Rv strain of Mtb (setting [10]). In addition, the “SI (selectivity index, ratio of IC50:MIC)” value in the experiment on Vero monkey kidney cells came out at 18.21. For the same compound, the IC50 in the experiment with Vero monkey kidney cells (setting [8]) and in the experiment on HepG2 cell line was 71 µM in each case. Moreover, in experiment [2], the “intracellular activity compared to EMB and INH” value was “equivalent to or better than EMB, but less active than INH”. Further, the “efficacy in macrophages compared to standard drugs (words)” value in experiment [2] was “equal or superior to ethambutol”. Also, the “loss of initial body weight” value with M. tuberculosis H37Rv [1] is recorded as 13%. In addition, the “prevention of body weight loss and mortality” value in the experiment on M. tuberculosis H37Rv [1] is recorded as “low efficacy; also recorded: not active”. Moreover, the “reduction of CFU in spleen” value in the experiment with M. tuberculosis H37Rv [3] (10 mg/kg daily by gavage, 28 days, museum strain of H37Rv) is recorded as 1 log. The “activity against M. tuberculosis in vivo” value with M. tuberculosis H37Rv [3] was “efficacious”.

Turning to `C=C(C)[C@@H]1CC=C(CN2CCCN(CC3=CC[C@@H](C(=C)C)CC3)CC2)CC1` [SQ781], in the experiment on H37Rv strain of Mtb (Examples 4 and 5 and screening summary), the MIC entry was “high MIC”.

With `COc1ccccc1CN1CCCN(Cc2ccccc2OC)CC1` [SQ782], the MIC in the experiment with H37Rv strain of Mtb (setting [9]) is 6.25 µM (≈ 2.13 µg/mL). The MIC with H37Rv strain of Mtb (setting [10]) amounted to 7.8 µM (≈ 2.66 µg/mL). The same compound returned an IC50 in the experiment with HepG2 cell line of 105 µM. In experiment [2], the “intracellular activity compared to EMB and INH” value is “equivalent to or better than EMB, but less active than INH”; the “efficacy in macrophages compared to standard drugs (words)” value is “equal or superior to ethambutol”.

In the case of `c1ccc(COc2ccc(CN3CCN(Cc4ccccc4)CC3)cc2)cc1` [SQ786, N -benzyl-N′-(4-benzyloxy)benzylpiperazine], the MIC was 3.9 µM (≈ 1.45 µg/mL) with H37Rv strain of Mtb (setting [9]) and 3.13 µM (≈ 1.17 µg/mL) in the experiment with H37Rv strain of Mtb (setting [10]). Besides, in experiment [4], the “activity in the Luc assay” value was “not active”. In the experiment on HepG2 cell line, this compound showed an IC50 of 54 µM. In the experiment on M. tuberculosis H37Rv [1], the “prevention of body weight loss and mortality” value was “prevented body weight loss and delayed mortality”. In the experiment with M. tuberculosis H37Rv [3], the “activity against M. tuberculosis in vivo” value was “promising activity against M.tb in vivo; also recorded: efficacious”.
